Where no end group is shown, it is not given here.
B1: purified Cry j I protein: purified major allergen of Japanese cedar (Cryptomeria japonica) pollen (protein)
chain: DNPIDSCWRGDSNWAQNRMKLADCAVGFGSSTMGGKGGDLYTVTNSDDDPVNPAPGTLRYGATRDRPLWIIFSGNMNIKLKMPMYIAGYKTFDGRGAQVYIGNGGPCVFIKRVSNVIIHGLYLYGCSTSVLGNVLINESFGVEPVHPQDGDALTLRTATNIWIDHNSFSNSSDGLVDVTLTSTGVTISNNLFFNHHKVMLLGHDDAYSDDKSMKVTVAFNQFGPNCGQRMPRARYGLVHVANNNYDPWTIYAIGGSSNPTILSEGNSFTAPNESYKKQVTIRIGCKTSSSCSNWVWQSTQDVFYNGAYFVSSGKYEGGNIYTKKEAFNVENGNATPQLTKNAGVLTCSLSKRC

Tested on: 19.6.47 T cells
Test: Proliferation reaction of isolated T cell clone with cedar pollen antigen and synthetic peptide
Assay type: cell-based, human
Conditions: radiated (45 Gy) PBMC; FIG. 5
Description: Purified Cry j I protein (closed bar: 50 μg/ml, hatched bar: […], and open bar: 0.5 μg/ml), Cry j I p301–321 (closed bar: 250 μM, hatched bar: 25 μM, and open bar: 2.5 μM), and irrelevant (irrelevant peptide: […](SEQ ID NO: 3)).
The donor of 19.6.47 T cells suffered from hay fever of Japanese cedar pollen and said T cells were established during heavy pollination season. In this respect, a major allergen of Japanese cedar pollen (Cryptomeria japonica I; Cry j I) among the three non-autologous peptides shown in Table 3 was considered to be a possible peptide ligand recognized by said T cell clone. Thus, a synthetic peptide Cry j I p301–321 ([…](SEQ ID NO: 4)) and purified Cry j I protein were examined for their reactivity with the 19.6.47 T cells. A major allergen of Japanese cedar (Cryptomeria japonica) pollen was purified as described in Matsushita, S. et al., J. Immunol., 1987, 138: 109–115.
The 19.6.47 T cells were cultured with radiated (45 Gy) PBMC either in the presence of purified Cry j I protein ([…]), Cry j I p301–321 peptide ([…]) or irrelevant peptide.

| Molecule | reactivity with the 19.6.47 T cells (proliferation) |
| --- | --- |
| DVFYNGAYFVSSGKYEGGNIY (SEQ ID NO: 4) [Cry j I p301–321] | reacted |
| B1 | reacted |
